Read-outs that look alike come from different tables or passages of the source.
Experiments:
[1] = target: T1, human GRK2S670A (Homo sapiens, UniProt P25098, S670A); assay: Primary DSF (differential scanning fluorimetry) inhibitor screen, GRK2; assay type: binding; conditions: 10 μM compound; for ΔTm at 10 µM: read-out: ΔTm, primary screen, GRK2; for rank in the primary screen, GRK2: rank ordering of compounds in primary DSF screen
T1 construct: when using full-length kinases as the receptor[37] instead of isolated kinase domains; made in house
T1 sequence (P25098 1-689 S670A): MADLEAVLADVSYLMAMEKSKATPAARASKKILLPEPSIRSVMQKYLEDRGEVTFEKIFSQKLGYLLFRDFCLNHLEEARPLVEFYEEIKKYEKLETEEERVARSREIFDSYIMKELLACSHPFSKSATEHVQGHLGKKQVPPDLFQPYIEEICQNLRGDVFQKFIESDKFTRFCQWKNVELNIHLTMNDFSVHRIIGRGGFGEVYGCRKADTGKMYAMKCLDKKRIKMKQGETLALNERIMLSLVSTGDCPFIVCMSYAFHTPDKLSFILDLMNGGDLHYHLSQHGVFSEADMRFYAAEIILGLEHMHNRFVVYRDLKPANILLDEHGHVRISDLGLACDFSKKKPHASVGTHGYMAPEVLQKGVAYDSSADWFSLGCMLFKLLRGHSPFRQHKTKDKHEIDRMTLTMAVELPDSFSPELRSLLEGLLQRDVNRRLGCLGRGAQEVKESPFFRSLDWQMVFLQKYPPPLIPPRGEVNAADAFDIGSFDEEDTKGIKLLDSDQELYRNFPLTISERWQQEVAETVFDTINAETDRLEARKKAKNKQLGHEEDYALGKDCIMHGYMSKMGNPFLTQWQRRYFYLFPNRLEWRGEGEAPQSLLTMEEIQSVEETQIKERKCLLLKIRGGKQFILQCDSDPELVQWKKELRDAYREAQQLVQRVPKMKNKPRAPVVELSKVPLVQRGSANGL

[2] = target: T2, bovine GRK5 (Bos taurus, UniProt P43249); assay: Primary DSF inhibitor screen, GRK5; assay type: binding; conditions: 10 μM compound, 2 μM kinase, relative to DMSO control; read-out: ΔTm, primary screen, GRK5
T2 construct: when using full-length kinases as the receptor[37] instead of isolated kinase domains; made in house

[3] = target: T3, GRK1 (Bos taurus, UniProt P28327); assay: DSF retest (confirmation), GRK1; assay type: binding, bovine; conditions: for GRK1 Tm: 0.2 mg mL^–1 kinase; for GRK1 ΔTm: relative to intrinsic melting point of the kinase
T3 construct: Bovine GRK1_1–535, bovine and human GRK2S670A; made in house
T3 sequence (P28327 1-535): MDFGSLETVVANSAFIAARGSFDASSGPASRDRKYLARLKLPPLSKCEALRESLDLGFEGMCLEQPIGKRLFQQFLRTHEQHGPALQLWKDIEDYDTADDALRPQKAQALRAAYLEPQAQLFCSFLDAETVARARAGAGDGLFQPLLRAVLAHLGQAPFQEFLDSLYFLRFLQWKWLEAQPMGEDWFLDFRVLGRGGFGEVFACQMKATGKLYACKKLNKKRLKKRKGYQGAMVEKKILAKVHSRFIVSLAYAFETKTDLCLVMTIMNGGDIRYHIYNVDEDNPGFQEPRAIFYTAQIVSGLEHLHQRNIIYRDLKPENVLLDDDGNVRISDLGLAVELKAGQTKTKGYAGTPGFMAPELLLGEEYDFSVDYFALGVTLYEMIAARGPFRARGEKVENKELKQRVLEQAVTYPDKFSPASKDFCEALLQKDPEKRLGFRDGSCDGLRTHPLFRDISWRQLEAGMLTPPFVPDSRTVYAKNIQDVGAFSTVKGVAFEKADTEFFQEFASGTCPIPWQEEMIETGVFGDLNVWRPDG

[4] = target: T4, GRK2 (Homo sapiens, UniProt P25098, S670A); assay: DSF retest (confirmation), GRK2; assay type: binding; conditions: for GRK2 Tm: 0.2 mg mL^–1 kinase; for GRK2 ΔTm: relative to intrinsic melting point of the kinase
T4 construct: made in house
T4 sequence (P25098 1-689 S670A): T1 sequence (P25098 1-689 S670A)

[5] = target: T5, GRK5 (Bos taurus, UniProt P43249); assay: DSF retest (confirmation), GRK5; assay type: binding, bovine; conditions: for GRK5 Tm: 0.2 mg mL^–1 kinase; for GRK5 ΔTm: relative to intrinsic melting point of the kinase
T5 construct: when using full-length kinases as the receptor[37] instead of isolated kinase domains; made in house

[6] = target: T6, protein kinase A (PKA) (Mus musculus, UniProt P05132); assay: DSF retest (confirmation), PKA; assay type: binding; conditions: for PKA Tm: 0.2 mg mL^–1 kinase; for PKA ΔTm: relative to intrinsic melting point of the kinase
T6 construct: His tag (inferred from pET15b vector and Ni-NTA column) (N); host or cells: E. coli Rosetta(DE3)pLysS
Description: Fourteen compounds (Figure 1a–c), including all GRK2 hits except staurosporine, and the most stabilizing pyrrolopyrimidine-containing compounds were obtained from GSK and retested using DSF on GRKs representing each vertebrate subfamily (GRK1, 2, and 5) (Table 1). […] The ability of these compounds to shift the Tm of the related AGC family kinase member protein kinase A (PKA) was also assessed (Table 1). In no case was ΔTm greater for PKA than for one of the tested GRKs. […]. There was no correlation for GRK1 (Figure 2c).
DSF was conducted using a ThermoFluor plate reader (Johnson & Johnson) in a buffer containing 20 mM HEPES, pH 7.0, 5 mM MgCl2, 2 mM DTT, and 1 mM CHAPS with 0.2 mg mL^–1 final concentration of GRK or PKA and 100 μM 1-anilinonaphthalene-8-sulfonic acid.[14]

[7] = target: T3, GRK1; assay: In vitro phosphorylation assay (tubulin, 5 μM ATP), GRK1; assay type: biochemical, bovine
[8] = target: T7, GRK2 (Bos taurus, UniProt P21146, S670A); assay: In vitro phosphorylation assay (tubulin, 5 μM ATP), GRK2; assay type: biochemical, bovine
T7 construct: made in house
T7 sequence (P21146 1-689 S670A): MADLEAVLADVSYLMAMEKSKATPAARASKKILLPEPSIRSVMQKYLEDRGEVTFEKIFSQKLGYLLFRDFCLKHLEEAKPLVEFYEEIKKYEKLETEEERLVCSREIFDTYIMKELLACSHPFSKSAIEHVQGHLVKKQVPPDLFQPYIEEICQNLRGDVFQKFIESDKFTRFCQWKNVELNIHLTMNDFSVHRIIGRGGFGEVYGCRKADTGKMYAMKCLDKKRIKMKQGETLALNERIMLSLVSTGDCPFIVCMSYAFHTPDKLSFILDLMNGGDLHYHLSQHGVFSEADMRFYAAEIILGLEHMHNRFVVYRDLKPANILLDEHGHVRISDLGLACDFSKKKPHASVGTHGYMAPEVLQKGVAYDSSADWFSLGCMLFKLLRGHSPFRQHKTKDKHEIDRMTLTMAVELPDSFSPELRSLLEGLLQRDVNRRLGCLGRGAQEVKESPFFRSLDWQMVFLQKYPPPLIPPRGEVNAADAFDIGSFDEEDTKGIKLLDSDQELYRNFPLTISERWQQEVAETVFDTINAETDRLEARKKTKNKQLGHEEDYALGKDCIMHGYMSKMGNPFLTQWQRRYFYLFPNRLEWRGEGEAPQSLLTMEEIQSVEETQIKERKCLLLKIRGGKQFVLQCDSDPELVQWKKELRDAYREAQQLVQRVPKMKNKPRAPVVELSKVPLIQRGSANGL

[9] = target: T5, GRK5; assay: In vitro phosphorylation assay (tubulin, 5 μM ATP), GRK5; assay type: biochemical, bovine
[10] = target: T8, PKA (Mus musculus, UniProt P05132); assay: PKA inhibition assay (ADP-Glo, CREBtide, 100 μM ATP); assay type: biochemical
T8 construct: His tag (inferred from pET15b vector and Ni-NTA column) (N); host or cells: E. coli Rosetta(DE3)pLysS

[11] = test system: GRK1, 2, and 5 and PKA; assay: Ssel selectivity score calculated from inhibition of GRK1, 2, 5 and PKA; conditions: selectivity score from inhibition of GRK1, 2, 5 and PKA; <0.5 selective
[12] = test system: ROCK1; conditions: relative to GSK180736A (substitution effect); cited from earlier work
[13] = 2 μM kinase, relative to DMSO control
[14] = logarithm of IC50 (−3.3 corresponds to 0.5 mM, footnote c), 438 nM PKA, 100 μM ATP, CREBtide, read-out: PKA log IC50 (converted)

T5 sequence (P43249 whole entry, the tested form may be a part): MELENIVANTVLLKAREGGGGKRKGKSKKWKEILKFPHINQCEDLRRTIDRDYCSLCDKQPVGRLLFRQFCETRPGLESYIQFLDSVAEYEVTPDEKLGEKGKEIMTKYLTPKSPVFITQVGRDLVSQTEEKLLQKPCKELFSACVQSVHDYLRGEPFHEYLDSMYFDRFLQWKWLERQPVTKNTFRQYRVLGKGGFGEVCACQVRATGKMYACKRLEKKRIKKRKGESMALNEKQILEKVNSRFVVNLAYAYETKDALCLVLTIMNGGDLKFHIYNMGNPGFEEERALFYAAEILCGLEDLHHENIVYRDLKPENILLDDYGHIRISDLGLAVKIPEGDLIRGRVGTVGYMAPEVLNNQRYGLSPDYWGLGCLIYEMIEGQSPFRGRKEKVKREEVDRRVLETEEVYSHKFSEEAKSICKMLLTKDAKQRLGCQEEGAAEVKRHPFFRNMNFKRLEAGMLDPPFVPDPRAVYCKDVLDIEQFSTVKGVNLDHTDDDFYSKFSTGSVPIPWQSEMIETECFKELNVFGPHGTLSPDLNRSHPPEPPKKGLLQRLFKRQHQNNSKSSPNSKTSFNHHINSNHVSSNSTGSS
T2 sequence (P43249 whole entry, the tested form may be a part): as above

| Compound | ΔTm at 10 µM [1, 13] | rank in the primary screen, GRK2 [1] | ΔTm at 10 µM [2] | GRK1 Tm [3] | GRK1 ΔTm [3] | GRK2 Tm [4] | GRK2 ΔTm [4] | GRK5 Tm [5] | GRK5 ΔTm [5] | PKA Tm [6] | PKA ΔTm [6] | GRK2 fold (increase in potency relative to paroxetine) [8] | GRK5 fold (increase in potency relative to paroxetine) [9] | IC50 [10, 14] | Ssel [11] | increase in potency of ROCK inhibition [12] | further results |
| --- | --- | --- | --- | --- | --- | --- | --- | --- | --- | --- | --- | --- | --- | --- | --- | --- | --- |
| CC1=C(C(=O)Nc2ccc3[nH]ncc3c2)C(c2ccc3ccccc3c2)CC(=O)N1 (stereo not drawn) [GSK270822A] | 3.82 °C | 5 | 3.92 °C | 24.6 °C | 4.7 °C | 47.8 °C | 10.3 °C | 29.4 °C | 2.6 °C | 51.9 °C | 6.5 °C | 0.10 fold | 2.0 fold | 50.1 µM | 0.883 | 5 fold | ΔTm, primary screen, GRK2 [1, 13]: 3.8 °C; GRK1 fold (increase in potency relative to paroxetine) ([7]; relative to paroxetine): 1 fold; IC50 ([10]; read-out: IC50 against PKA): < 100 µM |
| CC1=C(C(=O)Nc2ccc3[nH]ncc3c2)C(c2ccc(F)cc2)NC(c2ccc(C(F)(F)F)nc2)=N1 (stereo not drawn) [GSK317354A] | 3.78 °C | 6 | 2.29 °C | 23.2 °C | 3.3 °C | 49.0 °C | 11.4 °C | 27.3 °C | 0.6 °C | 45.9 °C | 0.5 °C | 0.50 fold | 0.20 fold | 200 µM | 0.109 | 10 fold | IC50 ([7]; read-out: GRK1 log IC50 (converted)): > 1 mM; IC50 ([8]; read-out: GRK2 log IC50 (converted)): 2510 nM; less potent than GSK180736A against GRK2 ([8]; relative to GSK180736A): about 1 log; IC50 ([9]; read-out: GRK5 log IC50 (converted)): 631 µM |
